US9683934B2, “Terahertz spectroscopy for predicting stability of amorphous drugs” (Cambridge Enterprise Limited, priority 2013, dated 2017)

How the values were obtained:
[1] = Glass-transition temperature, Tg; type: physicochemical
[2] = Terahertz time-domain spectroscopy (THz-TDS) dielectric losses of polyalcohols, linear fits ε″(T/Tg)=A+BT/Tg; type: physicochemical; settings: for B3, linear coefficient of ε″(T/Tg)=A+BT/Tg in region (iii) / B1, linear coefficient of ε″(T/Tg)=A+BT/Tg in region (i) / B2, linear coefficient of ε″(T/Tg)=A+BT/Tg in region (ii): 1 THz, brackets = standard deviation at last decimal place; for B3, linear coefficient of ε″(T/Tg)=A+BT/Tg in region (iii): above Tg; for B1, linear coefficient of ε″(T/Tg)=A+BT/Tg in region (i): below about 0.6 Tg; for Tα, crossover point of linear fits from region (ii) to region (iii) / Tβ, crossover point of linear fits from region (i) to region (ii) / Tβ/Tg: dielectric losses at 1 THz; for B2, linear coefficient of ε″(T/Tg)=A+BT/Tg in region (ii): between about 0.6 Tg and Tg
From the text: In these examples, systematic THz-TDS study allows direct access to the complex dielectric function for the frequency range of 0.1-3 THz, over a wide range of temperatures. For these experiments, the samples were melted (except glycerol, which is liquid at room temperature), loaded into a continuous-flow cryostat and cooled at a rate of approximately 25 K·min^−1 to 80 K, followed by subsequent heating by 10 K increments to 310 K. Spectra were acquired using a THz-TDS setup operating in transmission geometry. All four polyalcohols were purchased from Sigma-Aldrich with >99% purity. The samples were used without further purification. […] The solid lines represent linear fits to the data in regions (i) below a transition temperature of about 0.6 Tg, (ii) between the transition temperature and Tg, and (iii), above Tg. The dashed vertical lines highlight the temperatures 0.6Tg and Tg, respectively. Tβ and Tα represent the crossover points (changes in gradient) of the linear fits from region (i) to region (ii), and from region (ii) to region (iii), respectively. […] The temperature dependence of ∈″(v) at v=1 THz is shown in FIG. 6 for all four polyalcohol materials. Here, we use the rescaled temperature T/Tg on the abscissa to compare the common features of the glassy state between the different polyalcohols. Three absorption regimes can be resolved in all samples: (i) temperature-independent losses; ii) a weak temperature dependence of losses below Tg; and iii) a strong temperature dependence of losses above Tg, as proposed previously. More detailed information was extracted by fitting the data points with an empirical linear fit, viz. ∈″(T/Tg)=A+BT/Tg, in each of the respective temperature regions. In Table I, we summarize the crossover temperatures Tβ and Tα between regions (i)-(ii) and (ii)-(iii), respectively, together with the respective gradients B1,2,3 obtained separately for each region, (i), (ii) and (iii). For all samples, Tα corresponds to Tg, the temperature above which the temperature-dependent part of ∈″(v) becomes dominated by the primary dielectric relaxation.

[3] = known from earlier investigations; cited from earlier work
[4] = Terahertz absorption coefficient of amorphous paracetamol and indomethacin at 1 THz versus T/Tg; type: physicochemical; settings: transmission
From the text: FIG. 3 plots the results of the characterisation of these materials. FIG. 3 plots the absorption coefficient for terahertz radiation (α/cm^−1) measured in transmission through the material at 1 THz, against temperature (plotted as T/Tg) for each material. As set out in the Summary of the Invention, the rate of change of the loss of EM radiation with temperature (the gradient of the graph in FIG. 3) may then be assessed, or measured, and as appropriate compared with a predetermined value in order to achieve a quantitative, or relative, characterisation of the stability of the amorphous material as described below. In FIG. 3, the plotted results for indomethacin show two distinct linear regions, firstly a small and constant rate of change, or gradient, for the absorption of the radiation below Tg, and secondly a marked change to a higher rate of change, or gradient, above Tg. By contrast the plotted results for paracetamol show three different linear regions, namely a low rate of change below a transition temperature of about 0.6 Tg, a higher rate of change between 0.6 Tg and Tg, and a still higher rate of change above Tg.

[5] = cited from earlier work; for stability of the glass (amorphous phase): known from direct measurements of crystallisation during storage; for resistance to crystallisation of the amorphous material below Tg: stored below Tg
[6] = trehalose/glycerol mixtures by glycerol weight concentration, Table 3

Structure (SMILES) | Tg [1, 6] [°C] | B3, linear coefficient of ε″(T/Tg)=A+BT/Tg in region (iii) [2] | B1, linear coefficient of ε″(T/Tg)=A+BT/Tg in region (i) [2] | Tα, crossover point of linear fits from region (ii) to region (iii) [2] [K] | Tg ([1]; polyalcohols, Table 1) [°C] | thermal change in absorption of terahertz radiation between 0.6 Tg-1.0 Tg [4] | B2, linear coefficient of ε″(T/Tg)=A+BT/Tg in region (ii) [2] | stability of the amorphous material indicated by gradient in region (ii) and changes in gradient ([2]; FIG. 5) | Tβ, crossover point of linear fits from region (i) to region (ii) [2] [K] | Tβ/Tg [2] | temperature above which the sample recrystallised ([2]; during heating in the THz-TDS run) | fragility index, m [3] | stability of the glass (amorphous phase) [5] | resistance to crystallisation of the amorphous material below Tg [5]
OC[C@H]1O[C@H](O[C@H]2O[C@H](CO)[C@@H](O)[C@H](O)[C@H]2O)[C@H](O)[C@@H](O)[C@@H]1O [0%, trehalose] | 115 | – | – | – | – | – | – | – | – | – | – | – | – | –
OC[C@@H](O)[C@@H](O)[C@H](O)[C@@H](O)CO [sorbitol] | – | 1.92(5) | 0.02(2) | 265 | -4.8 | – | 0.34(2) | relatively poor stability | 150 | 0.56 | – | 128 | – | –
OC[C@@H](O)[C@H](O)[C@@H](O)CO [xylitol] | – | 0.82(4) | 0.06(1) | 248 | -25.3 | – | 0.13(3) | – | 167 | 0.68 | – | 94 | – | –

Second part, led by results:

Tg [1, 6] [°C] | B3, linear coefficient of ε″(T/Tg)=A+BT/Tg in region (iii) [2] | B1, linear coefficient of ε″(T/Tg)=A+BT/Tg in region (i) [2] | Tα, crossover point of linear fits from region (ii) to region (iii) [2] [K] | Tg ([1]; polyalcohols, Table 1) [°C] | thermal change in absorption of terahertz radiation between 0.6 Tg-1.0 Tg [4] | B2, linear coefficient of ε″(T/Tg)=A+BT/Tg in region (ii) [2] | stability of the amorphous material indicated by gradient in region (ii) and changes in gradient ([2]; FIG. 5) | Tβ, crossover point of linear fits from region (i) to region (ii) [2] [K] | Tβ/Tg [2] | temperature above which the sample recrystallised ([2]; during heating in the THz-TDS run) | Structure (SMILES) | fragility index, m [3] | stability of the glass (amorphous phase) [5] | resistance to crystallisation of the amorphous material below Tg [5]
-83 | 0.64(1) | 0.03(1) | 189 | -81.4 | – | – | – | – | – | – | OCC(O)CO [glycerol] | 57 | – | –
– | – | – | – | – | very low | – | – | – | – | – | COc1ccc2c(c1)c(CC(=O)O)c(C)n2C(=O)c1ccc(Cl)cc1 [indomethacin] | – | very good stability | much more stable
– | – | – | – | – | well developed | – | – | – | – | – | CC(=O)Nc1ccc(O)cc1 [paracetamol] | – | poor stability | crystallises rather readily
– | 0.43(15) | 0.07(1) | 228 | -46.8 | – | 0.09(1) | – | 147 | 0.65 | above 250 K | OC[C@@H](O)[C@H](O)CO [threitol] | 79 | – | –
